ChEMBL document CHEMBL1201862, “PubChem BioAssay data set” (2004)
Calls of active or inactive are those of the source.

Key:
[1] = test system: HEK293; experiment: NOD2 signaling inhibitors in MDP-stimulated cells, cell-based, uHTS, luminescence (AID 2001); format: functional; conditions: Homo sapiens
[2] = test system: HEK293; experiment: inhibition of NOD1-driven NF-kB reporter – cell-based, luminescence, uHTS, primary screen (AID 1578); format: functional; conditions: Homo sapiens
[3] = test system: HEK293; experiment: cells; format: functional, cell-based; conditions: Homo sapiens
[4] = test system: HEK293; experiment: cells; format: functional, cell-based; conditions: Homo sapiens; remark: listed apart in the source
[5] = target: T1, Short transient receptor potential channel 4 (Mus musculus, UniProt Q9QUQ5); experiment: calcium entry via TRPC4 opening agents – cell-based, HEK293 TRPC4/mu-opioid, Fluo-4 calcium, dose response (AID 434937); format: functional
T1 sequence (Q9QUQ5 whole entry): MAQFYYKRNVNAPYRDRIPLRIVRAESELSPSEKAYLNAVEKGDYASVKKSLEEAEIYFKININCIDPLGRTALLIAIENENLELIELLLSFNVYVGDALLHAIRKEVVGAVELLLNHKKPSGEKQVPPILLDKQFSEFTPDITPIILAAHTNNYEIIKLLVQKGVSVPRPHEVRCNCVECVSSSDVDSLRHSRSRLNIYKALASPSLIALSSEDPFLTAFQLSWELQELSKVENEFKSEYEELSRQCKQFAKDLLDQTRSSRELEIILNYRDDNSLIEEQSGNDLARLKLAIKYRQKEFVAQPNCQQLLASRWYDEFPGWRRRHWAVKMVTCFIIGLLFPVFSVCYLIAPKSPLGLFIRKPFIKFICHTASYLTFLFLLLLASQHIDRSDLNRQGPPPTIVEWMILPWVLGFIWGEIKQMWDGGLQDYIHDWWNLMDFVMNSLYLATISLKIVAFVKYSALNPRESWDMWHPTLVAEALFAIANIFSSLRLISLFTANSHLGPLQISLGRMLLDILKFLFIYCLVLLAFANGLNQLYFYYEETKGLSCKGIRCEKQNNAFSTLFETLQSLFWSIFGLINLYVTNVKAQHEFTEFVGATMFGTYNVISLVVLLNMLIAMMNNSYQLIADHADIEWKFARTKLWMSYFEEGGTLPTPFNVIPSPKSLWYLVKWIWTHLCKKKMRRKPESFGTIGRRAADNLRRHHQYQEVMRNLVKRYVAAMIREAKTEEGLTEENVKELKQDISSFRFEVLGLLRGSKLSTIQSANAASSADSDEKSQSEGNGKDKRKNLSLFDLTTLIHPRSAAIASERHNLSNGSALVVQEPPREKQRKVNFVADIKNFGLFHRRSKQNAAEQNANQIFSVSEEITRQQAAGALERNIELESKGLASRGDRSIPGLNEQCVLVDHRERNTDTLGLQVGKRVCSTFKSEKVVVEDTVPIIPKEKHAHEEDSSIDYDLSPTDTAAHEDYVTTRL

[6] = target: G-protein coupled receptor 55 (Homo sapiens, UniProt Q9Y2T6); experiment: inhibition of LPI-stimulated GPR55 beta-arrestin translocation – imaging, U2OS, beta-arrestin-GFP, LPI agonist, primary screen (AID 2013); format: functional;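 further: antagonist potency measured as reduced agonist-driven arrestin aggregation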
[7] = target: T2, Protein RecA (Mycobacterium tuberculosis, UniProt P9WHJ3); experiment: Fluorescence Cell-Free Homogeneous Dose Retest to Identify Inhibitors of RecA-Intein Splicing Activity. [Related pubchem assays (depositor defined):AID2097, AID2223, AID489010, AID492950]; format: functional
T2 sequence (P9WHJ3 whole entry): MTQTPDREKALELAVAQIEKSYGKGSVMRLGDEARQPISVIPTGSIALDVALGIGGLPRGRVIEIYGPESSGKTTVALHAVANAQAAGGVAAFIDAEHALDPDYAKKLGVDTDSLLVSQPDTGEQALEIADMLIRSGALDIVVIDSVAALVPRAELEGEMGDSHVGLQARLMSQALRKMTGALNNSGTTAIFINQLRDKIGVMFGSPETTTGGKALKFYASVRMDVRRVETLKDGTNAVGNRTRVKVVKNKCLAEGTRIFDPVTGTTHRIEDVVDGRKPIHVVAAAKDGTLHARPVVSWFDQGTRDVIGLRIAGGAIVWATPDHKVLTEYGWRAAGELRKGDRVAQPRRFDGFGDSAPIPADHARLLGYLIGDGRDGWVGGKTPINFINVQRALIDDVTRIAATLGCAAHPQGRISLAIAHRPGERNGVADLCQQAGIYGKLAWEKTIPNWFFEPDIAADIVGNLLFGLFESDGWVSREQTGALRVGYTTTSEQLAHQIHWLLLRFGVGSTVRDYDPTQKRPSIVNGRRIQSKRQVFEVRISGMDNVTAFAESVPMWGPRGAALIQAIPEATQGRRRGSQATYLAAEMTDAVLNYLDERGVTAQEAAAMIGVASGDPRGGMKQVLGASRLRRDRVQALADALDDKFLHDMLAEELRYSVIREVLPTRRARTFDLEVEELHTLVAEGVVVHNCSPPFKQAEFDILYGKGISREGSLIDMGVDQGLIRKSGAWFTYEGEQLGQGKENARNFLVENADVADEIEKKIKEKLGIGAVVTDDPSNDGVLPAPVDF

[8] = target: T3, Replicative DNA helicase DnaB (Mycobacterium tuberculosis, UniProt P9WMR3); experiment: DnaB intein splicing inhibitors, dose response, biochemical, cell-free fluorescence (AID 449749); format: functional
T3 sequence (P9WMR3 whole entry): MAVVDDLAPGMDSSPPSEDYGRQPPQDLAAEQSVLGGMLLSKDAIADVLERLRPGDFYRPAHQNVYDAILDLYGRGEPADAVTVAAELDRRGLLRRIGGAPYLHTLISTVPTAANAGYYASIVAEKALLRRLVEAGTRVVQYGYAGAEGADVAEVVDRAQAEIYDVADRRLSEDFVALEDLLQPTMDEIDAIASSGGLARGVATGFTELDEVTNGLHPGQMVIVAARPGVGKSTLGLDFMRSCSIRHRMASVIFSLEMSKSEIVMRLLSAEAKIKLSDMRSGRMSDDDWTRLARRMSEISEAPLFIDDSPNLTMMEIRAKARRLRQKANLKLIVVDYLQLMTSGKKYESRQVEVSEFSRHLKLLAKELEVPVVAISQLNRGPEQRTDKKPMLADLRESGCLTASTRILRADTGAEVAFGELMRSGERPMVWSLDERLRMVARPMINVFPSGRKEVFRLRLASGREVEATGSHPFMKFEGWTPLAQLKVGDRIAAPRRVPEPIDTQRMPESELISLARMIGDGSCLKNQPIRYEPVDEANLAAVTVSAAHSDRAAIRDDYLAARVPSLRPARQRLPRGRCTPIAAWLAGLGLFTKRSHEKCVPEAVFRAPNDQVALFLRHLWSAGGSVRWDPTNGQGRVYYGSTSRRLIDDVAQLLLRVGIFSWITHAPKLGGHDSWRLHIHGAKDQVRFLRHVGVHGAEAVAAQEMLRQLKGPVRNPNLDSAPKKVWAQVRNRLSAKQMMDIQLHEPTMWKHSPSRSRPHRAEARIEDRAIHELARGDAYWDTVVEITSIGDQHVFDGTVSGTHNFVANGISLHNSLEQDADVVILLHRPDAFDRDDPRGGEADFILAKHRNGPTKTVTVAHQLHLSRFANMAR

[9] = target: Glucose-6-phosphate 1-dehydrogenase (Homo sapiens, UniProt P11413); experiment: inhibition of Homo sapiens G6PD, dose series – biochemical, fluorescence, selectivity assay for P. falciparum G6PD inhibitor project, dose response (AID 504792); format: functional
[10] = target: DNA dC->dU-editing enzyme APOBEC-3A (Homo sapiens, UniProt P31941); experiment: A3A deaminase inhibition for selectivity – biochemical, dose response (AID 504722); format: functional
[11] = target: FAD-linked sulfhydryl oxidase ALR (Homo sapiens, UniProt P55789); experiment: ALR-catalysed DTT oxidation blockers – biochemical, H2O2 detection, luminescence, cherry-pick, dose response (AID 493248)
[12] = target: DNA dC->dU-editing enzyme APOBEC-3G (Homo sapiens, UniProt Q9HC16); experiment: Dose Response confirmation of small molecule APOBEC3G DNA Deaminase Inhibitors via a fluorescence-based single-stranded DNA deaminase assay. [Related pubchem assays (depositor defined):AID493012, AID493028]; format: functional
[13] = target: T4, Rac GTPase-activating protein 1 (Homo sapiens, UniProt Q9H0H5); experiment: blockers of MgcRacGAP-driven Rac1 GTP hydrolysis – biochemical, ADP Hunter fluorescence, primary and confirmatory, confirmation (AID 624330); format: functional
T4 sequence (Q9H0H5 whole entry): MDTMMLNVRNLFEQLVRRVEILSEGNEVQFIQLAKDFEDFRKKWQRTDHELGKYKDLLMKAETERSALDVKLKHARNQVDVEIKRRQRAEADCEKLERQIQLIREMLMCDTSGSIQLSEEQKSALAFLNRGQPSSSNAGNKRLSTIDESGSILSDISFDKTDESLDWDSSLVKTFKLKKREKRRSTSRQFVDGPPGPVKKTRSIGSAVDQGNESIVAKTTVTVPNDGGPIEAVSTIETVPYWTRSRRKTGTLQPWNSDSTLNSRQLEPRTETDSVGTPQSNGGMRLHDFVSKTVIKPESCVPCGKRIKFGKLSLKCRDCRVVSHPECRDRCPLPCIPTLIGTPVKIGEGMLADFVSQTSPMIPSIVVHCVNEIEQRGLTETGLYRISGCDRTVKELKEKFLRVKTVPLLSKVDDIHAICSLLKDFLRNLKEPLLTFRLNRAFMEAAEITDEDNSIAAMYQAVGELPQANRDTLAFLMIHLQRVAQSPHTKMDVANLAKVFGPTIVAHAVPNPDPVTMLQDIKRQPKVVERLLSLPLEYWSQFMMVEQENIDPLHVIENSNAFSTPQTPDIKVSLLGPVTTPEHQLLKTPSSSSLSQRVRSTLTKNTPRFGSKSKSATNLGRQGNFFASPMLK

[14] = target: T5, Leucine aminopeptidase (Plasmodium falciparum 3D7, UniProt Q8IL11); experiment: P. falciparum M17LAP inhibitors, primary screen, biochemical, fluorogenic H-Leu-NHMec substrate, 1536-well (AID 1619); format: functional
T5 sequence (Q8IL11 whole entry): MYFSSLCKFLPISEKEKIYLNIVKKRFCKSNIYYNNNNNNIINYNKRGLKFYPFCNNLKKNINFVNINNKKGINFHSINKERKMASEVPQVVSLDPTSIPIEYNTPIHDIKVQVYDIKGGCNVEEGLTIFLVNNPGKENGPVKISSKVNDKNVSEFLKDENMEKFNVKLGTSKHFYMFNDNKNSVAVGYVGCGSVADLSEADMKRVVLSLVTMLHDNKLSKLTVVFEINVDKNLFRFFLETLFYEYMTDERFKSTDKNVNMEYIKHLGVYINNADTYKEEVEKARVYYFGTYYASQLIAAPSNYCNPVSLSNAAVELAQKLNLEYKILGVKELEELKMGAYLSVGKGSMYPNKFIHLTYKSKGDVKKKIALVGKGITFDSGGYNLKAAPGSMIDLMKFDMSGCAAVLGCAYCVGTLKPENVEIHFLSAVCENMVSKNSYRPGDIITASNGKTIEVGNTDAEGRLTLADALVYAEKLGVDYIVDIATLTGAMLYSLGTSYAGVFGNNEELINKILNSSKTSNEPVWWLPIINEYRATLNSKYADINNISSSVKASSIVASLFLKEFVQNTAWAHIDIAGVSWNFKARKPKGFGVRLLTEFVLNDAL

DNA dC->dU-editing enzyme APOBEC-3A, sequence (P31941 whole entry): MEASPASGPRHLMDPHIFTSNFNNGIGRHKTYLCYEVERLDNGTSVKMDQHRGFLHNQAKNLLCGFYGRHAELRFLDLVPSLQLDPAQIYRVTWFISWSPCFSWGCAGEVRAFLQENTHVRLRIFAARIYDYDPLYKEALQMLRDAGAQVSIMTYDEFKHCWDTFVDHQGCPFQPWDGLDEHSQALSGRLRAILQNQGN
DNA dC->dU-editing enzyme APOBEC-3G, sequence (Q9HC16 whole entry): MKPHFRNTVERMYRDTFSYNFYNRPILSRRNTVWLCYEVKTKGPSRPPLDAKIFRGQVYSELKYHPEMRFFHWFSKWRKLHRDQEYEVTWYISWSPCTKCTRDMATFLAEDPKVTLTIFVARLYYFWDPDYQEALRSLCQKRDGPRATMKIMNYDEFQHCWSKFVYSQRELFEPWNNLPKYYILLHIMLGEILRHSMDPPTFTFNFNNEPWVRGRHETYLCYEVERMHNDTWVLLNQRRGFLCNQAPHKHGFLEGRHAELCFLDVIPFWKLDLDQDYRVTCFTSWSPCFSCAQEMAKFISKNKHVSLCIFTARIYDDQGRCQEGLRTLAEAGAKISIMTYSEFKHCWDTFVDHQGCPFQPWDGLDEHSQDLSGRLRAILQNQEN
G-protein coupled receptor 55, sequence (Q9Y2T6 whole entry): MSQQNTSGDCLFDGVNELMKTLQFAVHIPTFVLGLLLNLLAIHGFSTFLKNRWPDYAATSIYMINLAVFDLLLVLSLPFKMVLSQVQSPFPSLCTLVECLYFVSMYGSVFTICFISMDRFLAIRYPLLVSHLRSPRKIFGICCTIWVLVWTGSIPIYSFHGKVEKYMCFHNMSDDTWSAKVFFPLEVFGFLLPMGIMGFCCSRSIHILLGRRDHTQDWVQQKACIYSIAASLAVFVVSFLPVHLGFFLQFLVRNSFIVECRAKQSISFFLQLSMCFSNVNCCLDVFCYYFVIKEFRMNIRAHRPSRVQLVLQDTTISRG
FAD-linked sulfhydryl oxidase ALR, sequence (P55789 whole entry): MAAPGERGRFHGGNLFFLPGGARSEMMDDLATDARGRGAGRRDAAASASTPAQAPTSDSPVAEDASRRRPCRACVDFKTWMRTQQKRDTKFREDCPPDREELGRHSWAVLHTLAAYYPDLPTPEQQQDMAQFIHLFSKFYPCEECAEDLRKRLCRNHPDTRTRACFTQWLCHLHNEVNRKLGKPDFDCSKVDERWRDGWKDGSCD
Glucose-6-phosphate 1-dehydrogenase, sequence (P11413 whole entry): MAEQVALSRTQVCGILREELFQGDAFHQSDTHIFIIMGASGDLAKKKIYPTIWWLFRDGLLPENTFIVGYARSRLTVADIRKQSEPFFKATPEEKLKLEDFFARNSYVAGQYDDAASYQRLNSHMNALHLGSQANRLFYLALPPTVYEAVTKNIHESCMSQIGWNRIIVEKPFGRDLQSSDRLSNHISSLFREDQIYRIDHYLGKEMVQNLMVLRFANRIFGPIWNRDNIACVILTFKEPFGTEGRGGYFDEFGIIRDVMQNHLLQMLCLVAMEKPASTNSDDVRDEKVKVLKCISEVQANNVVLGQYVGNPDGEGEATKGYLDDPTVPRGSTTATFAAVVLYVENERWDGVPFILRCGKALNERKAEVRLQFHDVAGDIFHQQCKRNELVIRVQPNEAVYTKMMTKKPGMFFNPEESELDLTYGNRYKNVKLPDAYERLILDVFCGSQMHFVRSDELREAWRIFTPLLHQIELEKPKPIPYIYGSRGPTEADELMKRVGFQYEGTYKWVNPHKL

In the case of Oc1nc(CCl)nc2cc(-c3ccc(F)cc3)sc12, the IC50 [1] is reported as 15.2 µM (inactive), the EC50 [2] is reported as 13.1 µM (active) and the IC50 [3] is reported as 12.6 µM (active). For the same compound, the IC50 [4] was > 20 µM (inactive).
For NCCCNC(=O)c1cc2ccccc2[nH]1, the EC50 [5] was 7.5 µM (active).
With COC(=O)c1ccccc1NC(=S)NC(NC(=O)c1ccco1)C(Cl)(Cl)Cl (stereo unspecified) the IC50 [6] was 8.08 µM (active).
With CC(C)(C)c1cc(Cl)ccc1OCCn1ccnc1 the EC50 [5] was 5.96 µM (active).
In the case of O=S(=O)(Nc1c(O)ccc2ccccc12)c1ccccc1, the EC50 [7] is reported as 1.51 µM (active), the AC50 [8] is reported as 5.09 µM (active) and the IC50 [9] is reported as 29.9 µM (inactive).
Sc1nnc(C2CCCCC2)n1/N=C/c1ccccn1 was tested, and the IC50 [10] was > 100 µM (inactive), the AC50 [11] was 1.04 µM (active) and the IC50 [12] was 2.23 µM (active).
In the case of Cn1c(=O)c2ccccc2n2c(S)nnc12, the IC50 [10] is reported as > 100 µM (inactive), the IC50 [13] is reported as 19.9 µM (active) and the IC50 [12] is reported as 3.8 µM (active).
For CCc1nnc(NS(=O)(=O)c2ccc(NC(=O)/C=C/c3ccc(OC)cc3OC)cc2)s1, the IC50 [14] was 7.96 µM (active) and the IC50 [6] was 1.44 µM (active).
For COc1ccc(/C=N/n2c(S)nnc2-c2[nH]nc3c2CCC3)c(OC)c1OC, the IC50 [10] was > 100 µM (inactive), the IC50 [13] was 69.9 µM (active) and the IC50 [12] was 4.64 µM (active).
